According to PubChem BioAssay (NCI):
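Values below derive from 48-hour exposures of cells grown in 96-well plates, with endpoints linearly interpolated between the two concentrations bracketing the appropriate inhibition level. The concentration for 50% growth inhibition is given as GI50. TGI is the concentration that stops growth completely.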

Columns and labels:
Assay in all cases: inhibition of tumour cell growth, NCI panel, 48 h
786-0 renal = system: 786-0 renal
A498 renal = system: A498 renal
A549 NSCLC = system: A549 NSCLC
ACHN renal = system: ACHN renal
BT-549 breast = system: BT-549 breast
CAKI-1 renal = system: CAKI-1 renal
CCRF-CEM leukemia = system: CCRF-CEM leukemia
COLO 205 colon = system: COLO 205 colon
DU-145 prostate = system: DU-145 prostate
EKVX NSCLC = system: EKVX NSCLC
HCC-2998 colon = system: HCC-2998 colon
HCT-116 colon = system: HCT-116 colon
HCT-15 colon = system: HCT-15 colon
HL-60(TB) leukemia = system: HL-60(TB) leukemia
HOP-62 NSCLC = system: HOP-62 NSCLC
HOP-92 NSCLC = system: HOP-92 NSCLC
HS 578T breast = system: HS 578T breast
HT29 colon = system: HT29 colon
IGROV1 ovarian = system: IGROV1 ovarian
K-562 leukemia = system: K-562 leukemia
KM12 colon = system: KM12 colon
LOX IMVI melanoma = system: LOX IMVI melanoma
M14 melanoma = system: M14 melanoma
MALME-3M melanoma = system: MALME-3M melanoma
MCF7 breast = system: MCF7 breast
MDA-MB-231 breast = system: MDA-MB-231 breast
MDA-MB-435 = system: MDA-MB-435
MOLT-4 leukemia = system: MOLT-4 leukemia
NCI-H226 lung = system: NCI-H226 lung
NCI-H23 lung = system: NCI-H23 lung
NCI-H460 lung = system: NCI-H460 lung
NCI-H522 lung = system: NCI-H522 lung
NCI/ADR-RES ovarian = system: NCI/ADR-RES ovarian
OVCAR-3 ovarian = system: OVCAR-3 ovarian
OVCAR-4 ovarian = system: OVCAR-4 ovarian
OVCAR-5 ovarian = system: OVCAR-5 ovarian
OVCAR-8 ovarian = system: OVCAR-8 ovarian
PC-3 prostate = system: PC-3 prostate
RPMI-8226 leukemia = system: RPMI-8226 leukemia
SF-268 CNS = system: SF-268 CNS
SF-295 CNS = system: SF-295 CNS
SF-539 CNS = system: SF-539 CNS
SK-MEL-2 melanoma = system: SK-MEL-2 melanoma
SK-MEL-28 melanoma = system: SK-MEL-28 melanoma
SK-MEL-5 melanoma = system: SK-MEL-5 melanoma
SK-OV-3 ovarian = system: SK-OV-3 ovarian
SN12C renal = system: SN12C renal
SNB-19 CNS = system: SNB-19 CNS
SNB-75 CNS = system: SNB-75 CNS
SR leukemia = system: SR leukemia
SW-620 colon = system: SW-620 colon
T-47D breast = system: T-47D breast
TK-10 renal = system: TK-10 renal
U251 CNS = system: U251 CNS
UACC-257 melanoma = system: UACC-257 melanoma
UACC-62 melanoma = system: UACC-62 melanoma
UO-31 renal = system: UO-31 renal

**Q.** Which GI50 (786-0 renal) does the source give for `O=C(CCCCCCNC(=O)C(O)(O)C(F)(F)F)Nc1nc2ccccc2s1` here?
**A.** 6.4 µM

**Q.** And the TGI (786-0 renal)?
**A.** > 29.8 µM

**Q.** And the GI50 (A498 renal)?
**A.** 1.51 µM

**Q.** And the TGI (A498 renal)?
**A.** 12.5 µM

**Q.** What about the GI50 (A549 NSCLC) of the same compound?
**A.** 7.99 µM

**Q.** And the TGI (A549 NSCLC)?
**A.** > 29.8 µM

**Q.** What about the GI50 (ACHN renal) of the same compound?
**A.** 3.59 µM

**Q.** And the TGI (ACHN renal)?
**A.** 17.3 µM

**Q.** What about the GI50 (BT-549 breast) of the same compound?
**A.** 7.06 µM

**Q.** What about the TGI (BT-549 breast) of the same compound?
**A.** > 29.8 µM

**Q.** And the GI50 (CAKI-1 renal)?
**A.** 6.99 µM

**Q.** What about the TGI (CAKI-1 renal) of the same compound?
**A.** > 29.8 µM

**Q.** What about the GI50 (CCRF-CEM leukemia) of the same compound?
**A.** 2.01 µM

**Q.** What about the TGI (CCRF-CEM leukemia) of the same compound?
**A.** > 29.8 µM

**Q.** And the GI50 (COLO 205 colon)?
**A.** 3.17 µM

**Q.** What about the TGI (COLO 205 colon) of the same compound?
**A.** 9.45 µM

**Q.** And the GI50 (DU-145 prostate)?
**A.** 4.99 µM

**Q.** What about the TGI (DU-145 prostate) of the same compound?
**A.** > 29.8 µM

**Q.** And the GI50 (EKVX NSCLC)?
**A.** 6.39 µM

**Q.** What about the TGI (EKVX NSCLC) of the same compound?
**A.** > 29.8 µM

**Q.** What about the GI50 (HCC-2998 colon) of the same compound?
**A.** 5.75 µM

**Q.** What about the TGI (HCC-2998 colon) of the same compound?
**A.** 16.8 µM

**Q.** What about the GI50 (HCT-116 colon) of the same compound?
**A.** 1.23 µM

**Q.** What about the TGI (HCT-116 colon) of the same compound?
**A.** > 29.8 µM

**Q.** What about the GI50 (HCT-15 colon) of the same compound?
**A.** 5.8 µM

**Q.** What about the TGI (HCT-15 colon) of the same compound?
**A.** 19.1 µM

**Q.** And the GI50 (HL-60(TB) leukemia)?
**A.** 1.85 µM

**Q.** And the TGI (HL-60(TB) leukemia)?
**A.** > 29.8 µM

**Q.** And the GI50 (HOP-62 NSCLC)?
**A.** 4.29 µM

**Q.** And the TGI (HOP-62 NSCLC)?
**A.** > 29.8 µM

**Q.** And the GI50 (HOP-92 NSCLC)?
**A.** 0.751 µM

**Q.** And the TGI (HOP-92 NSCLC)?
**A.** 8.28 µM

**Q.** And the GI50 (HS 578T breast)?
**A.** 3.57 µM

**Q.** What about the TGI (HS 578T breast) of the same compound?
**A.** > 29.8 µM

**Q.** And the GI50 (HT29 colon)?
**A.** 3.75 µM

**Q.** What about the TGI (HT29 colon) of the same compound?
**A.** > 29.8 µM

**Q.** What about the GI50 (IGROV1 ovarian) of the same compound?
**A.** 4.87 µM

**Q.** And the TGI (IGROV1 ovarian)?
**A.** 16.4 µM

**Q.** What about the GI50 (K-562 leukemia) of the same compound?
**A.** 1.7 µM

**Q.** What about the TGI (K-562 leukemia) of the same compound?
**A.** > 29.8 µM

**Q.** What about the GI50 (KM12 colon) of the same compound?
**A.** 5.84 µM

**Q.** What about the TGI (KM12 colon) of the same compound?
**A.** > 29.8 µM

**Q.** What about the GI50 (LOX IMVI melanoma) of the same compound?
**A.** 3.41 µM

**Q.** What about the TGI (LOX IMVI melanoma) of the same compound?
**A.** 7.75 µM

**Q.** What about the GI50 (M14 melanoma) of the same compound?
**A.** 6.4 µM

**Q.** What about the TGI (M14 melanoma) of the same compound?
**A.** > 29.8 µM

**Q.** And the GI50 (MALME-3M melanoma)?
**A.** 1.49 µM

**Q.** What about the TGI (MALME-3M melanoma) of the same compound?
**A.** 13 µM

**Q.** And the GI50 (MCF7 breast)?
**A.** 6.59 µM

**Q.** What about the TGI (MCF7 breast) of the same compound?
**A.** > 29.8 µM

**Q.** And the GI50 (MDA-MB-231 breast)?
**A.** 3.59 µM

**Q.** What about the TGI (MDA-MB-231 breast) of the same compound?
**A.** 22.1 µM

**Q.** What about the GI50 (MDA-MB-435) of the same compound?
**A.** 4.36 µM

**Q.** What about the TGI (MDA-MB-435) of the same compound?
**A.** 23.5 µM

**Q.** What about the GI50 (MOLT-4 leukemia) of the same compound?
**A.** 1.21 µM

**Q.** And the TGI (MOLT-4 leukemia)?
**A.** > 29.8 µM

**Q.** What about the GI50 (NCI-H226 lung) of the same compound?
**A.** 9.61 µM

**Q.** What about the TGI (NCI-H226 lung) of the same compound?
**A.** > 29.8 µM

**Q.** What about the GI50 (NCI-H23 lung) of the same compound?
**A.** 4.94 µM

**Q.** What about the TGI (NCI-H23 lung) of the same compound?
**A.** 25.9 µM

**Q.** And the GI50 (NCI-H460 lung)?
**A.** 2.98 µM

**Q.** What about the TGI (NCI-H460 lung) of the same compound?
**A.** > 29.8 µM

**Q.** And the GI50 (NCI-H522 lung)?
**A.** 2.76 µM

**Q.** And the TGI (NCI-H522 lung)?
**A.** 14.7 µM

**Q.** What about the GI50 (NCI/ADR-RES ovarian) of the same compound?
**A.** 3.4 µM

**Q.** And the TGI (NCI/ADR-RES ovarian)?
**A.** 16.7 µM

**Q.** And the GI50 (OVCAR-3 ovarian)?
**A.** 3.17 µM

**Q.** And the TGI (OVCAR-3 ovarian)?
**A.** 8.39 µM

**Q.** What about the GI50 (OVCAR-4 ovarian) of the same compound?
**A.** 11 µM

**Q.** What about the TGI (OVCAR-4 ovarian) of the same compound?
**A.** > 29.8 µM

**Q.** And the GI50 (OVCAR-5 ovarian)?
**A.** 2.33 µM

**Q.** And the TGI (OVCAR-5 ovarian)?
**A.** 15 µM

**Q.** And the GI50 (OVCAR-8 ovarian)?
**A.** 2.86 µM

**Q.** And the TGI (OVCAR-8 ovarian)?
**A.** > 29.8 µM

**Q.** What about the GI50 (PC-3 prostate) of the same compound?
**A.** 5.01 µM

**Q.** What about the TGI (PC-3 prostate) of the same compound?
**A.** > 29.8 µM

**Q.** What about the GI50 (RPMI-8226 leukemia) of the same compound?
**A.** 2.73 µM

**Q.** And the TGI (RPMI-8226 leukemia)?
**A.** > 29.8 µM

**Q.** What about the GI50 (SF-268 CNS) of the same compound?
**A.** 7.69 µM

**Q.** And the TGI (SF-268 CNS)?
**A.** > 29.8 µM

**Q.** What about the GI50 (SF-295 CNS) of the same compound?
**A.** 3.43 µM

**Q.** What about the TGI (SF-295 CNS) of the same compound?
**A.** 8.88 µM

**Q.** What about the GI50 (SF-539 CNS) of the same compound?
**A.** 6.56 µM

**Q.** And the TGI (SF-539 CNS)?
**A.** > 29.8 µM

**Q.** And the GI50 (SK-MEL-2 melanoma)?
**A.** 4.43 µM

**Q.** What about the TGI (SK-MEL-2 melanoma) of the same compound?
**A.** 21 µM

**Q.** What about the GI50 (SK-MEL-28 melanoma) of the same compound?
**A.** 3.76 µM

**Q.** What about the TGI (SK-MEL-28 melanoma) of the same compound?
**A.** > 29.8 µM

**Q.** And the GI50 (SK-MEL-5 melanoma)?
**A.** 4.08 µM

**Q.** What about the TGI (SK-MEL-5 melanoma) of the same compound?
**A.** 8.13 µM

**Q.** And the GI50 (SK-OV-3 ovarian)?
**A.** 2.27 µM

**Q.** What about the TGI (SK-OV-3 ovarian) of the same compound?
**A.** 12.6 µM

**Q.** What about the GI50 (SN12C renal) of the same compound?
**A.** 6.39 µM

**Q.** And the TGI (SN12C renal)?
**A.** > 29.8 µM

**Q.** And the GI50 (SNB-19 CNS)?
**A.** 6.49 µM

**Q.** What about the TGI (SNB-19 CNS) of the same compound?
**A.** > 29.8 µM

**Q.** And the GI50 (SNB-75 CNS)?
**A.** 1.67 µM

**Q.** And the TGI (SNB-75 CNS)?
**A.** > 29.8 µM

**Q.** What about the GI50 (SR leukemia) of the same compound?
**A.** 1.23 µM

**Q.** And the TGI (SR leukemia)?
**A.** > 29.8 µM

**Q.** What about the GI50 (SW-620 colon) of the same compound?
**A.** 2.08 µM

**Q.** And the TGI (SW-620 colon)?
**A.** 11 µM

**Q.** What about the GI50 (T-47D breast) of the same compound?
**A.** 2.24 µM

**Q.** And the TGI (T-47D breast)?
**A.** 22.8 µM

**Q.** And the GI50 (TK-10 renal)?
**A.** 1.17 µM

**Q.** And the TGI (TK-10 renal)?
**A.** > 29.8 µM

**Q.** And the GI50 (U251 CNS)?
**A.** 4.32 µM

**Q.** What about the TGI (U251 CNS) of the same compound?
**A.** 25.5 µM

**Q.** What about the GI50 (UACC-257 melanoma) of the same compound?
**A.** 6.56 µM

**Q.** What about the TGI (UACC-257 melanoma) of the same compound?
**A.** > 29.8 µM

**Q.** And the GI50 (UACC-62 melanoma)?
**A.** 1.61 µM

**Q.** And the TGI (UACC-62 melanoma)?
**A.** 6.76 µM

**Q.** And the GI50 (UO-31 renal)?
**A.** 2.01 µM

**Q.** What about the TGI (UO-31 renal) of the same compound?
**A.** 15.9 µM
